According to patent publication US20190070170A1, “METHOD OF S[…]-1” (Macau University of Science and Technology, priority 2017, published 2019):

Key:
CREB = CREB pathway (p-CREB) in LPS-stimulated rat peritoneal macrophages (western blotting); type: cell-based; conditions: SIN 1 h, LPS 1 μg/ml 15 min or 1 h
Method: (§1) Sprague-Dawley (SD) rats from the University of Hong Kong were housed in cages with free access to food and water. Peritoneal macrophages of SD rats were isolated as described in Liu J. et al., Pharmacological research 2016, 111:303-315. Briefly, untreated rats were sacrificed and after laparotomy, about 50 ml cold sterile Hank's balanced salt solution (HBSS) was used to lavage the peritoneal cavity at twice, and then the peritoneal lavage fluid was collected and centrifuged at 1500 rpm for 10 min. The cell pellets was suspended at a density 1.5×10^6 cells/ml in pre-hearted DMEM medium with 10% heat-inactivated FBS, penicillin G (100 units/ml), streptomycin ([…]), and L-glutamine (2 mM), followed by seeding in 6-well plates at a density of 4.5×10^6 cells and incubation for 2 h. Then the medium were discarded to remove the non-adherent cells. The adherent cells were further washed for two times with pre-heated DMEM medium to remove floating cells. Next, cells were pre-treated with various concentration of SIN for 1 h, followed by stimulation with LPS (1 μg/ml).
(§2) Whole-cell and nuclear proteins were obtained using RIPA lysis buffer (CST, Boston, Mass., USA) and Nuclear and Cytoplasmic Extraction Reagents kit from Thermo Scientific (Asheville, N.C., USA), respectively. […] The levels of protein expression were measured using Odyssey v3.0 software from Li-COR (Lincoln, Nebr., USA).

C/EBPβ = C/EBPβ phosphorylation and nuclear translocation in LPS-stimulated rat peritoneal macrophages (western blotting, immunofluorescence); type: cell-based; conditions: SIN 1 h
Method: as §1
as §2, with “USA). […]” for “USA).”

COX-1 = COX-1 protein in microsomes of inflamed paw of carrageenan-induced rats (western blotting); type: in vivo, SD rats; conditions: SIN or DEX pretreatment i.p.
Method: The model of carrageenan-induced paw edema was performed with SD rats (150-200 g). The carrageenan-induced paw edema was performed in SD rats (150-200 g) by subcutaneously injection λ-carrageenan as described in Liu J. et al., Pharmacological research 2016, 111 and Luo P. et al., J. Pharmacol. Exp. Ther. 2010. Briefly, rats were fasted for 12 h before experiment and intraperitoneal injection was performed with three different doses (25, 50 and 100 mg/kg) of SIN, or DEX (reference drug, 2 mg/kg) or 0.9% saline (Vehicle and Normal group rats), at 2 h prior to the induction of paw edema. […] Paw volumes (ml) of right hind foot of each rat were measured using a plethysmometer (type 7150; UGO Basile, Comerio, Italy) at 0 h (before carrageenan injection) and then again at 1, 2, 3 and 4 h after the injection of carrageenan or saline. The percentage of paw edema of the right hind paws of all groups were calculated at different time points by the following equation: […]
as §2

COX-2 = COX-2 protein expression in IL-1β-stimulated A549 cells (western blotting); type: cell-based; conditions: IL-1β with SIN or DEX for 48 h
Method: RAW264.7 and A549 cell lines were obtained from American Type Culture Collection (ATCC, Manassas, Va., USA) and maintained in DMEM (RAW264.7) or 1640 (A549) medium containing 10% FBS (Gibco-BRL, Grand Island, N.Y., USA) and antibiotics at 37° C. in a humidified atmosphere containing 5% CO2. RAW264.7 cells were plated in 6-well plates at a density of 4×10^5 cells and incubated for 24 h, then the cells were pretreated with different concentrations of SIN for 1 h before stimulating with LPS (100 ng/ml). A549 cells were seeded in 6-well plates at a density of 1×10^5 cells and incubated for 24 h, followed by pretreatment with SIN. A549 cells were then stimulated by IL-1β (1 ng/ml).
Whole-cell and nuclear proteins were obtained using RIPA lysis buffer (CST, Boston, Mass., USA) and Nuclear and Cytoplasmic Extraction Reagents kit from Thermo Scientific (Asheville, N.C., USA), respectively. For immunoblotting, proteins from whole-cell, cytoplasm, nuclear, and microsomal fractions were separated on SDS-PAGE, then transferred onto a nitrocellulose membrane from GE Healthcare Life Sciences (Buckinghamshire, UK), and incubated with 5% skimmed milk at room temperature for 1 h. […] The levels of protein expression were measured using Odyssey v3.0 software from Li-COR (Lincoln, Nebr., USA).

**Q.** What does the source list for `COC1=C[C@@H]2[C@@H]3Cc4ccc(OC)c(O)c4[C@]2(CCN3C)CC1=O` [SIN, sinomenine]?
**A.** influence on CREB pathway (CREB): No observable effects; LPS-induced phosphorylation of C/EBPβ (Ser105 and T235+T188) (C/EBPβ; LPS 30 min): inhibitory effects; LPS-induced nuclear translocation of C/EBPβ (C/EBPβ; LPS 2 h): inhibitory effects; COX-1 level in inflamed paw (COX-1): did not produce observable effects; COX-2 protein expression (COX-2): did not suppress
